Source: patent US7579468B2, “Methods of modulating neurotrophin-mediated activity” (PainCeptor Pharma Corporation, priority 2005, dated 2009)
Entries after “also recorded” stand apart in the source; their conditions may differ.

Assays:
[1] = tested on: HEK_TrkA: TrkA alone (human TrkA); assay: 125I-NGF binding displacement in HEK_TrkA cells; conditions: individual experiment
Protocol: All cells were incubated at 37° C. in 5% CO2. PC12 cells were maintained in RPMI-1640 medium supplemented with 10% fetal bovine serum (FBS). A875 human melanoma cells were maintained in DMEM with 10% FBS. HEK 293 cells were stably transfected with human TrkA plasmid (see below) and maintained in DMEM with 10% FBS and G418 (600 μg/mL) for selection.
Expression of human TrkA in HEK cells was achieved by transfecting the cells with the TrkA expression vector using Lipofectamine (Invitrogen) reagent. HEK cells were plated in 100 mm Petri dishes at a concentration of 10^6 cells per dish. The next day, a solution of DNA diluted in 1 mL OptiMEM (Invitrogen) per dish was prepared and incubated for 15 min at room temperature. […]
NGF binding was evaluated using methods familiar to those who are skilled in the art. […] Non-specific binding was determined for reference by incubating ^125I-NGF with an excess of non-radioactive NGF in the absence of compound. Following a two-hour incubation period at 4° C., ^125I-NGF bound to the cells was quantified in a gamma radiation counter following separation from unbound NGF by filtration or centrifugation through glycerol (10% in HKR). Inhibition of binding was calculated as a percent of the specific binding (calculated as the differential between ^125I-NGF binding in the absence and presence of an excess of non-radioactive NGF without compound). […]

Male Sprague-Dawley rats [2] = assay: Formalin Model - model of acute tonic pain; format: in vivo, rat; conditions: 6.5, 12.5 and 25 mg/kg i.p., Phase II
Protocol: Male Sprague-Dawley rats were given a subcutaneous injection of 50 μl of 2.5% formalin into the plantar surface of one hindpaw using a 27 gauge syringe needle, and nociceptive responses were measured for the next 60 min. Compound or vehicle was administered (i.p. or s.c.) 15-45 minutes prior to the formalin injection. A nociceptive score was determined for each 5 min block by measuring the amount of time spent in each of four behavioral categories: 0, the injected hindpaw is indistinguishable from that of the contralateral paw; 1, the injected paw has little or no weight placed on it; 2, the injected paw is elevated and is not in contact with any surface; 3, the injected paw is licked, bitten, or shaken. A weighted nociceptive score, ranging from 0 to 3 was calculated by multiplying the time spent in each category by the category weight, summing these products, and dividing by the total time for each 5 min block of time (Coderre et al., Pain 1993; 54: 43). On the basis of the resulting response patterns, 2 phases of nociceptive behaviour were identified and scored: first phase (P1; 0-5 min) and second phase (P2; 11-40 min).
Statistical analysis was performed using Prism™ 4.01 software package (GraphPad, San Diego, Calif., USA). […]

Mice = assay: Writhing Test (acetic acid abdominal contraction test); format: in vivo, mouse
Protocol: The acetic acid abdominal contraction test (Martinez et al., Pain 1999; 81: 179) was used to determine the efficacy of different compounds in a model of acute visceral chemical nociception. […] Compound or vehicle was administered (i.p. or s.c.) 15-45 minutes prior to the acetic acid injection. Each episode of writhing is characterized by a lengthwise stretching of the torso with a concomitant arching of the back.
Statistical analysis was performed using Prism™ 4.01 software package (GraphPad, San Diego, Calif., USA). The difference in response levels between treatment groups and control vehicle group was analyzed using an ANOVA followed by Bonferroni's method for post-hoc pair-wise comparisons. A p value <0.05 was considered to be significant.

Male Sprague-Dawley rats [3] = assay: Spared Nerve Injury (SNI) model of neuropathic pain; format: in vivo, rat; conditions: Von Frey filaments, 90 min post-treatment, Compound 11 3 and 10 mg/kg i.p., Compound 107 20 mg/kg i.p.
Text: The Spared Nerve Injury (SNI) model (Decosterd et al., Pain 2000; 87: 149) was used to induce chronic neuropathic pain. Male Sprague-Dawley rats were anesthetized with isoflurane, and two of the three terminal branches of the sciatic nerve (tibial and common peroneal nerves) were transected, leaving the remaining sural nerve intact. Animals develop thermal and mechanical hyperalgesia and allodynia, as well as spontaneous pain or dysesthesia that last month after the nerve injury.
Mechanical allodynia testing: Pre- and post-injury baselines as well as post-treatment values (vehicle or compound-treated animals) for mechanical allodynia were evaluated using Von Frey filaments (Stoelting, Wood Dale, Ill., USA) with varying stiffness. […] The mean and standard error of the mean (SEM) were determined for each paw in each treatment group (ipsilateral/injured paw and contralateral/non-injured paw). […] Effects of compounds were evaluated two weeks after the injury. Compound or vehicle was administered (i.p. or s.c.) and effects on mechanical allodynia were measured at different time points after dosing (e.g., 30, 60 and 90 min.).
Data analysis: Statistical analyses were conducted using Prism™ 4.01 (GraphPad, San Diego, Calif., USA). Mechanical hypersensitivity of the injured paw was determined by comparing contralateral to ipsilateral paw values within the vehicle group at each time point. […]

CC(=O)Nc1cc2c3c(cc(NC(C)=O)cc3c1)C(=O)N(CCCC(=O)O)C2=O [Compound 11, 4-(5,8-Bis-acetylamino-1,3-dioxo-1H,3H-benzo[de]isoquinolin-2-yl)-butyric acid]
NGF binding displacement, dose-response curve [1]: effectively blocks NGF binding to TrkA | Antinociceptive effect in the Formalin Test (Male Sprague-Dawley rats [2]): significant dose-dependent antinociceptive effect; also recorded: significant antinociceptive effects | Number of abdominal contractions (writhing) (Mice; 15 mg/kg i.p., 30 minutes following acetic acid, vehicle 54±6): 28±4 | Antinociceptive effect in the Writhing Test (Mice; Compound 63 100 mg/kg i.p., Compound 11 15 mg/kg i.p., 10-20 minutes before acetic acid): significant antinociceptive effects | Effect on mechanical allodynia in the SNI model (Male Sprague-Dawley rats [3]): significant dose-dependent reversal of the mechanical allodynia; also recorded: significant antinociceptive effects
